# Reference: article PMC4038554, “Human CD4^+ T Cell Responses to the Dog Major Allergen Can f 1 and Its Human Homologue Tear Lipocalin Resemble Each Other” (PLoS ONE, 2014)
# Values joined by “and” are separate entries in the source; they are usually repeats but may differ in a detail not shown here. Equal values may be shown once. Read-outs that look alike come from different tables or passages of the source.
# Assays:
# DRB1*1101 = DRB1*1101 (Homo sapiens, UniProt P01903+P01911, A100R/A169T/A87E/I96F/K41T/L162R/M171V/P40S/Q125H/Q178H/Q39Y/Q99D/R42S/S66Y/T262R/V115G/W38E); assay: HLA class II peptide-binding assay (competitive ELISA); conditions: immunopurified HLA, reference peptide IC50 50 nM, ratio ≤20 high affinity, 20–200 moderate affinity
# [1] = system: CD25-depleted PBMCs (CD4+ T cells); assay: Generation of peptide-specific CD4+ T cell lines with the split-well method (frequency of specific TCLs); assay type: cell-based, human; conditions: for positive specific TCLs out of 30 replicate wells per subject: peptides at 2 µM, 10^5 PBMCs per well, mean±SEM, SEM; for estimated average precursor frequency of peptide-specific T cells: estimated from TCL frequencies, assuming 30% CD4+ T cells in PBMCs
# Protocol: After isolating peripheral-blood mononuclear cells (PBMCs) by Ficoll-Paque Plus density gradient centrifugation (GE Healthcare Biosciences, Uppsala, Sweden), CD4^+CD25high regulatory T cells were depleted with anti-CD25-magnetic beads (Miltenyi Biotec, Bergisch Gladbach, Germany), to enhance the induction of both autoreactive and allergen-reactive CD4^+ T cell responses, as previously described, [34].The CD25-depleted PBMCs were seeded in 96-well U-bottomed plates (Corning Incorporated, Corning, USA; 10^5 PBMCs per well) in the presence of pooled Can f 1 or TL peptides (each peptide at 2 µM, 30 wells per a peptide pool), or the HA peptide (30 wells) in a 150 µl volume of RPMI 1640 culture medium supplemented with 2 mM L-glutamine, 20 µM 2-mercaptoethanol, 1 mM sodium pyruvate, nonessential amino acids, 100 IU/ml penicillin, 100 µg/ml streptomycin, 10 mM HEPES (all from Lonza, Verviers, Belgium) and 5% inactivated human AB serum (Sigma-Aldrich, St. Louis, MO). On day 5, 50 µl of fresh medium supplemented with 10 IU/ml of IL-2 (Strathmann Biotech, Hannover, Germany) was added to the cultures. On day 7, half of the culture medium was replaced without IL-2. On day 10, half of the cells in the cultures were split into daughter plates for testing specificity by stimulating the cells with or without the pooled peptides (each peptide at 2 µM) together with autologous γ-irradiated (3000 rad) PBMCs (5×10^5) as antigen-presenting cells. After an incubation of 72 h, [3H]thymidine was added (1 µCi per well; GE Healthcare, Little Chalfont, UK), and after an additional 16 h, the cells were harvested onto glass fiber filters on day 14 (Wallac, Turku, Finland). Radioactivity was measured by scintillation counting (Wallac Micro Beta 1540) and the results were expressed as counts per minute (CPM). The stimulation indices (SI; CPM in the presence of antigen divided by CPM in the absence of antigen) and CPM differences between stimulated and unstimulated wells (ΔCPM) were determined. On the same day, positive cultures (ΔCPM>2000 and SI>2) were restimulated in 48-well plates with autologous γ-irradiated PBMCs (10^6/well), 2 µM of the peptides and 25 IU/ml of IL-2. On day 28, the established TCLs were propagated once more with peptides, IL-2 and PBMCs. After stimulations, half of the culture medium was replaced with fresh medium supplemented with IL-2 every 2–3 days. The peptide specificity of TCLs was defined as described below.
# T cell proliferation assays were set in duplicates in 96-well U-bottomed plates with 2.5×10^4 cultured T cells, 5×10^4 autologous γ-irradiated (3000 rad) PBMCs as APCs, and antigens as indicated. In order to determine the epitope specificity of the established TCLs induced with peptide pools, the T cell lines were tested with each of the three individual peptides in the pool at 10 µM on day 28. Proliferation was measured by radionuclide uptake (see above). […] On day 42, peptide-specific TCLs were tested with individual Can f 1 peptides, as well as their TL homologues, at several concentrations up to 10 µM. The functional T cell receptor (TCR) avidities of the TCLs for a peptide were assessed by determining effective concentration 50 (EC50) values (i.e., the concentration of a peptide needed to induce a half-maximal proliferative response) from the dose-response curves of individual TCLs.
# DRB4 = assay: HLA class II peptide-binding assay (competitive ELISA); design: species or system human
# DRB5 = assay: as above; design: species or system human
# DRB1*0701 = DRB1*0701 (Homo sapiens, UniProt P01903+P01911, A100R/A102G/A103Q/D57E/D86V/E43K/F76Y/K127E/L162R/M171V/P40G/Q125H/Q99D/R33Q/R42Y/R54Q/S133A/S66F/T210M/V115G/Y107V/Y59L/Y89S); assay: as above; conditions: immunopurified HLA, reference peptide IC50 5 nM, ratio ≤20 high affinity, 20–200 moderate affinity
# DRB1*0301 = DRB1*0301 (Homo sapiens, UniProt P01903+P01911, A100K/A102G/A103R/A169T/F55Y/I96L/K41T/L162R/M171V/P40S/Q125H/Q178H/Q39Y/R42S/S66N/T106N/T262R/W38E/Y61H); assay: as above; conditions: immunopurified HLA, reference peptide IC50 423 nM, ratio ≤20 high affinity, 20–200 moderate affinity
# DRB1*0101 = DRB1*0101 (Homo sapiens, UniProt P01903+P01911, A100R/D57E/F55L/F60I/F76Y/I96L/L162R/M171V/P40L/Q125E/R42F/V115G/Y59C); assay: as above; conditions: immunopurified HLA, reference peptide IC50 3 nM, ratio ≤20 high affinity, 20–200 moderate affinity
# DRB1*1501 = DRB1*1501 (Homo sapiens, UniProt P01903+P01911); assay: as above; conditions: immunopurified HLA, reference peptide IC50 775 nM, ratio ≤20 high affinity, 20–200 moderate affinity
# DRB3 = assay: as above; design: species or system human
# DRB1*0401 = DRB1*0401 (Homo sapiens, UniProt P01903+P01911, A100K/A169T/F76Y/I96L/K127E/L162R/M171V/N62H/P40V/Q125Y/R42H/S133A/S149N/S66Y/V115G/V209L/W38E); assay: as above; conditions: immunopurified HLA, reference peptide IC50 8 nM, ratio ≤20 high affinity, 20–200 moderate affinity
# DRB1*1301 = DRB1*1301 (Homo sapiens, UniProt P01903+P01911, A100E/A169T/K41T/L162R/M171V/P40S/Q125H/Q178H/Q39Y/Q99D/R42S/S66N/T262R/W38E/Y61H); assay: as above; conditions: immunopurified HLA, reference peptide IC50 208 nM, ratio ≤20 high affinity, 20–200 moderate affinity
# [2] = system: peptide-specific CD4+ T cell lines; assay: Proliferation assay, functional TCR avidity (EC50) of peptide-specific TCLs; assay type: cell-based, human
# [3] = DRB4, competitive ELISA, immunopurified HLA, reference peptide IC50 8 nM, ratio ≤20 high affinity, 20–200 moderate affinity
# [4] = DRB5, competitive ELISA, immunopurified HLA, reference peptide IC50 7 nM, ratio ≤20 high affinity, 20–200 moderate affinity
# [5] = DRB3, competitive ELISA, immunopurified HLA, reference peptide IC50 60 nM, ratio ≤20 high affinity, 20–200 moderate affinity
Sequence,relative binding ratio (IC50 of the test peptide divided by IC50 of the reference peptide) (DRB1*1101),positive specific TCLs out of 30 replicate wells per subject ([1]; allergic subjects) [%],positive specific TCLs out of 30 replicate wells per subject ([1]; nonallergic subjects) [%],relative binding ratio (IC50 of the test peptide divided by IC50 of the reference peptide) (DRB4; [3]),relative binding ratio (IC50 of the test peptide divided by IC50 of the reference peptide) (DRB5; [4]),relative binding ratio (IC50 of the test peptide divided by IC50 of the reference peptide) (DRB1*0701),relative binding ratio (IC50 of the test peptide divided by IC50 of the reference peptide) (DRB1*0301),relative binding ratio (IC50 of the test peptide divided by IC50 of the reference peptide) (DRB1*0101),relative binding ratio (IC50 of the test peptide divided by IC50 of the reference peptide) (DRB1*1501),relative binding ratio (IC50 of the test peptide divided by IC50 of the reference peptide) (DRB3; [5]),relative binding ratio (IC50 of the test peptide divided by IC50 of the reference peptide) (DRB1*0401),relative binding ratio (IC50 of the test peptide divided by IC50 of the reference peptide) (DRB1*1301),estimated average precursor frequency of peptide-specific T cells ([1]; allergic subjects) [per 10^6 CD4^+ T cells],estimated average precursor frequency of peptide-specific T cells ([1]; nonallergic subjects) [per 10^6 CD4^+ T cells],relative binding ratio (IC50 of the test peptide divided by IC50 of the reference peptide) (DRB4),relative binding ratio (IC50 of the test peptide divided by IC50 of the reference peptide) (DRB5),percentage of high-avidity (EC50<0.1 µM) TCLs [2],relative binding ratio (IC50 of the test peptide divided by IC50 of the reference peptide) (DRB3)
"PGKYTAYEGQRVVFIQ [pC4, Can f 1 peptide p73–88]",133,5.0±1.15,4.2±1.61,722,14,1,13,1,0.4,61,82,56,,,,,,
"PKYVKQNTLKLAT [HA, influenza hemagglutinin (HA) peptide (amino acids 306–318), viral control peptide, reference compound]",,12.68±10.98,8.60±13.37,,,,,,,,,,4.2,2.9,> 1 179,1,25.0% and 22.6%,> 167
"LEAKVTMLISGRCQEVK [pTL3, Tear lipocalin peptide p49–65]",5,1.89±0.57,4.2±0.68,312,4,0.2,0.4,2,1,8,82,3,,,,,,
